# Assay results reported in patent US20260041679A1, “METHOD OF TREATING HYPERTENSION WITH THE ALDOSTERONE SYNTHASE INHIBITOR BAXDROSTAT” (CINCOR PHARMA, INC., priority 2022, published 2026).
# Several values for one entry are separate records, joined by “and”; a condition that tells them apart may be missing. Identical values can stand only once. Like-named read-outs stand apart in the source and are kept apart here.
# Tests used:
# aldosterone synthase = target: T1, aldosterone synthase (Homo sapiens, UniProt P19099); assay: Single ascending dose study, pharmacodynamics: aldosterone, cortisol with ACTH challenge (Example 1); assay type: in vivo
# T1 construct: Pharmacodynamic measurements included plasma aldosterone, cortisol, and electrolytes; endogenous in cells; host or cells: human subjects in vivo (healthy volunteers; resistant hypertension patients)
# T1 sequence (P19099 25-503): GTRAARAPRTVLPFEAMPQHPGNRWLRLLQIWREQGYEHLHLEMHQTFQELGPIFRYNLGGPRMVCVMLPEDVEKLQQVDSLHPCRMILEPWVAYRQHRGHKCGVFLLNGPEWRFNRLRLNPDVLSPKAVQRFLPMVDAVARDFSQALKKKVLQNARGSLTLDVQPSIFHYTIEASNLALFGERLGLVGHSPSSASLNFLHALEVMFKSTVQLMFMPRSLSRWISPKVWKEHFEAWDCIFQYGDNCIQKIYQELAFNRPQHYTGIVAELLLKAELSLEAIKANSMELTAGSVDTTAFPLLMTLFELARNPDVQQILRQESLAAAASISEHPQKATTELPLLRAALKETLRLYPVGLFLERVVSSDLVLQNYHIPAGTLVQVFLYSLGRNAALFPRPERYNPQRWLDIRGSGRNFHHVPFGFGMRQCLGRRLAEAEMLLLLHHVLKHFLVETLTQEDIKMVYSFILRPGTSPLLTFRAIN
# Description: Eighty-eight healthy male volunteers completed the first-in-human study of baxdrostat. In part 1 of the trial, subjects received a single oral dose of baxdrostat ranging from 1 to 360 mg in order to evaluate safety, tolerability, PK, and pharmacodynamics (PD). Part 2 evaluated the PK of a single 3 mg intravenous dose of baxdrostat.
# [1] = Relative bioavailability tablet vs oral solution and food effect (Example 3); assay type: in vivo, human; settings: for Tmax: human, plasma, oral, 5 mg
# Description: The relative bioavailability of a tablet formulation of baxdrostat was compared to the oral solution of baxdrostat that was administered in the SAD (Example 1) and MAD (Example 2) studies. A single 5 mg dose of each formulation in fourteen healthy volunteers established that plasma levels of baxdrostat were equivalent whether administered using the oral solution or tablet. This study also assessed the effect of a standardized high-fat meal on the PK of baxdrostat.
# [2] = Pharmacokinetics in subjects with moderate hepatic impairment vs normal hepatic function (Example 5); assay type: in vivo, human; settings: for CL renal / Cmax / AUC(0-inf) / Tmax: human, oral, 10 mg; for CL renal: plasma and urine, read-out: CLR, geometric mean (% CV) (converted); for CL renal / Cmax / AUC(0-inf) / Tmax / CL/F, geometric mean (% CV): single 10 mg; for Cmax / AUC(0-inf) / Tmax: plasma; for Cmax: read-out: Cmax, geometric mean (% CV); for AUC(0-inf): read-out: AUC(0-inf), geometric mean (% CV); for Tmax: read-out: Tmax, arithmetic mean (SD)
# Description: Subjects with moderate hepatic impairment (Child-Pugh Category B, n=10) and healthy controls (n=10) were each given a single 10 mg oral dose of baxdrostat. Subjects were matched by age, sex, body mass index, race, and smoking status. Serial blood and urine samples were collected to determine plasma and urine concentrations of baxdrostat for 7 days postdose. Safety was assessed based on adverse events, clinical laboratory evaluations, vital signs, electrocardiogram and physical examinations.
# patients with rHTN = assay: Study 121: seated blood pressure in patients with resistant hypertension (Example 8); assay type: in vivo, human; settings: for DBP decrease: after 12 weeks
# From the text: This study was a randomized, double-blind, placebo-controlled study to evaluate the efficacy and safety of baxdrostat in patients with rHTN. Patients with rHTN were defined as being on a stable regimen of ≥3 antihypertensive agents, one of which is a diuretic with a mean seated blood pressure (BP)≥130/80 mmHg. […] The secondary objectives were to evaluate the change from baseline in mean seated DBP with each of the selected dose strengths of baxdrostat compared to placebo and to evaluate the percentage of patients achieving a seated BP response<130/80 mmHg with each of the dose strengths of baxdrostat compared to placebo after 12 weeks of treatment. […] The study was planned to enroll 348 patients.
# The primary endpoint was the placebo-adjusted change from baseline to week 12 of the mean office SBP. The secondary endpoints included the placebo-adjusted change from baseline to week 12 in seated office DBP, and the percentage of patients achieving a seated BP response<130/80 mmHg with each of the selected dose strengths of baxdrostat compared to placebo after 12 weeks of treatment for rHTN.
# The point estimates for the main treatment effect and for the secondary endpoints were generated by mixed model analyses of covariance that included responder status as a fixed effect. […] The change from baseline in mean seated SBP will be analyzed using a mixed model for repeated measures (MMRM) model. The analysis includes fixed effects for treatment, visit, and treatment-by-visit interaction, along with covariates of the baseline mean seated SBP and baseline glomerular filtration rate. The restricted maximum likelihood estimation (REML) approach was used with an unstructured covariance matrix.
# [3] = moderate hepatic impairment vs normal hepatic function
smiles,measurement,setting,value
"CCC(=O)N[C@@H]1CCCc2c(-c3ccc4c(c3)CCC(=O)N4C)cncc21 [baxdrostat, (R)—N-(4-(1-methyl-2-oxo-1,2,3,4-tetrahydroquinolin-6-yl)-5,6,7,8-tetrahydroisoquinolin-8-yl) propionamide]",cortisol levels with an adrenocorticotropin hormone challenge,aldosterone synthase; single oral dose,no meaningful effect on cortisol levels
same,aldosterone levels,"aldosterone synthase; single oral dose 1 to 360 mg, fasted, low salt and normal salt diet",significantly reduced aldosterone levels in a dose-dependent manner
same,Tmax,[1]; fasted state,~3 h
same,Tmax,[1]; fed state (high-fat meal),~4 h
same,"plasma levels, oral solution vs tablet",[1]; single 5 mg dose of each formulation,equivalent
same,effect of high-fat meal on plasma levels,"[1]; tablet, single 5 mg",no noteworthy effect
same,CL renal,[2]; moderate hepatic impairment,4.98 mL/min
same,CL renal,[2]; normal hepatic function,6.02 mL/min
same,Cmax,[2]; moderate hepatic impairment (n = 10),119 ng/mL
same,AUC(0-inf),[2]; moderate hepatic impairment,3570 ng·h/mL
same,Tmax,[2]; moderate hepatic impairment,2.15 h
same,Cmax,[2]; normal hepatic function (n = 10),104 ng/mL
same,AUC(0-inf),[2]; normal hepatic function,3780 ng·h/mL
same,Tmax,[2]; normal hepatic function,2.55 h
same,"AUC(0-inf), ratio of GLSM (90% CI)",[2]; [3],"0.95 (0.73, 1.23)"
same,"Cmax, ratio of GLSM (90% CI)",[2]; [3],"1.1 (0.97, 1.32)"
same,"CL/F, geometric mean (% CV)",[2]; moderate hepatic impairment,2.80 (30.1) L/hr
same,"CL/F, geometric mean (% CV)",[2]; normal hepatic function,2.64 (24.7) L/hr
same,"DBP, LS mean change (SE)","patients with rHTN; 0.5 mg QD, 12 weeks",−8.6 (1.23) mmHg
same,"DBP, LS mean difference vs placebo (SE)","patients with rHTN; 0.5 mg QD, 12 weeks",0.5 (1.74) mmHg
same,"SBP, LS mean difference vs placebo (SE)","patients with rHTN; 0.5 mg QD, 12 weeks",−2.7 (2.68) mmHg
same,"SBP, LS mean change (SE)","patients with rHTN; 0.5 mg QD, 12 weeks, mITT",−12.1 (1.91) mmHg
same,treatment effect on SBP vs placebo,"patients with rHTN; 0.5 mg, 12 weeks","modestly greater than that of placebo, but this difference did not reach statistical significance"
same,DBP decrease,patients with rHTN; 0.5 mg,8.6 mmHg
same,"DBP, LS mean change (SE)","patients with rHTN; 1 mg QD, 12 weeks",−11.8 (1.26) mmHg
same,"DBP, LS mean difference vs placebo (SE)","patients with rHTN; 1 mg QD, 12 weeks",−2.7 (1.75) mmHg
same,"SBP, LS mean difference vs placebo (SE)","patients with rHTN; 1 mg QD, 12 weeks",−8.1 (2.7) mmHg and −8.1 (2.72) mmHg
same,"SBP, LS mean change (SE)","patients with rHTN; 1 mg QD, 12 weeks, mITT",−17.5 (1.95) mmHg
same,placebo-adjusted SBP decline,"patients with rHTN; 1 mg, 12 weeks",8.1 mmHg
same,DBP decrease,patients with rHTN; 1 mg,11.8 mmHg
same,"DBP, LS mean change (SE)","patients with rHTN; 2 mg QD, 12 weeks",−14.3 (1.31) mmHg
same,"DBP, LS mean difference vs placebo (SE)","patients with rHTN; 2 mg QD, 12 weeks",−5.2 (1.79) mmHg
same,"SBP, LS mean difference vs placebo (SE)","patients with rHTN; 2 mg QD, 12 weeks",−11.0 (2.78) mmHg
same,"SBP, LS mean change (SE)","patients with rHTN; 2 mg QD, 12 weeks, mITT",−20.3 (2.05) mmHg
same,DBP lowered compared to the placebo group,"patients with rHTN; 2 mg, 12 weeks",5.2 mmHg
same,"model adjusted, placebo-corrected decline in SBP","patients with rHTN; 2 mg, 12 weeks",11.0 mmHg
same,reduction in SBP,"patients with rHTN; 2 mg, 12 weeks",20.3 mmHg
same,DBP decrease,patients with rHTN; 2 mg,14.3 mmHg
same,model adjusted and placebo-corrected change from baseline in SBP,"patients with rHTN; 2 mg, intent to treat (ITT) analysis set",−11 mmHg
same,model adjusted and placebo-corrected change from baseline in SBP,"patients with rHTN; 2 mg, per protocol analysis set",−11.1 mmHg
same,time course of SBP decrease,patients with rHTN; 12 weeks of treatment,rapid after treatment started and sustained throughout the 12 weeks of treatment
same,"SBP, LS mean change (SE)","patients with rHTN; Female, 0.5 mg",−10.2 (2.77)
same,"SBP, LS mean difference (SE)","patients with rHTN; Female, 0.5 mg vs placebo",5.1 (4.12)
same,"SBP, LS mean change (SE)","patients with rHTN; Female, 1 mg",−17.8 (2.74)
same,"SBP, LS mean difference (SE)","patients with rHTN; Female, 1 mg vs placebo",−2.5 (4.09)
same,"SBP, LS mean change (SE)","patients with rHTN; Female, 2 mg",−18.2 (3.01)
same,"SBP, LS mean difference (SE)","patients with rHTN; Female, 2 mg vs placebo",−2.9 (4.27)
same,"SBP, LS mean change (SE)","patients with rHTN; Hispanic/Latino Female, 0.5 mg",−15.9 (4.27)
same,"SBP, LS mean difference (SE)","patients with rHTN; Hispanic/Latino Female, 0.5 mg vs placebo",2.2 (5.93)
same,"SBP, LS mean change (SE)","patients with rHTN; Hispanic/Latino Female, 1 mg",−11.5 (4.80)
same,"SBP, LS mean difference (SE)","patients with rHTN; Hispanic/Latino Female, 1 mg vs placebo",6.6 (6.33)
same,"SBP, LS mean change (SE)","patients with rHTN; Hispanic/Latino Female, 2 mg",−19.4 (3.59)
same,"SBP, LS mean difference (SE)","patients with rHTN; Hispanic/Latino Female, 2 mg vs placebo",−1.3 (5.46)
same,"SBP, LS mean change (SE)","patients with rHTN; Hispanic/Latino, 0.5 mg",−13.3 (2.72)
same,"SBP, LS mean difference (SE)","patients with rHTN; Hispanic/Latino, 0.5 mg vs placebo",−1.9 (3.94)
same,"SBP, LS mean change (SE)","patients with rHTN; Hispanic/Latino, 1 mg",−16.7 (3.43)
same,"SBP, LS mean difference (SE)","patients with rHTN; Hispanic/Latino, 1 mg vs placebo",−5.4 (4.46)
same,"SBP, LS mean change (SE)","patients with rHTN; Hispanic/Latino, 2 mg",−21.8 (2.95)
same,"SBP, LS mean difference (SE)","patients with rHTN; Hispanic/Latino, 2 mg vs placebo",−10.5 (4.10)
same,"SBP, LS mean change (SE)","patients with rHTN; Male, 0.5 mg",−13.7 (2.59)
same,"SBP, LS mean difference (SE)","patients with rHTN; Male, 0.5 mg vs placebo",−8.0 (3.53)
same,"SBP, LS mean change (SE)","patients with rHTN; Male, 1 mg",−17.4 (2.76)
same,"SBP, LS mean difference (SE)","patients with rHTN; Male, 1 mg vs placebo",−11.7 (3.66)
same,"SBP, LS mean change (SE)","patients with rHTN; Male, 2 mg",−22.4 (2.73)
same,"SBP, LS mean difference (SE)","patients with rHTN; Male, 2 mg vs placebo",−16.4 (3.63)
same,"SBP, LS mean change (SE)","patients with rHTN; Not Hispanic/Latino, 0.5 mg",−10.9 (2.72)
same,"SBP, LS mean difference (SE)","patients with rHTN; Not Hispanic/Latino, 0.5 mg vs placebo",−3.1 (3.75)
same,"SBP, LS mean change (SE)","patients with rHTN; Not Hispanic/Latino, 1 mg",−17.9 (2.41)
same,"SBP, LS mean difference (SE)","patients with rHTN; Not Hispanic/Latino, 1 mg vs placebo",−10.0 (3.52)
same,"SBP, LS mean change (SE)","patients with rHTN; Not Hispanic/Latino, 2 mg",−19.2 (2.86)
same,"SBP, LS mean difference (SE)","patients with rHTN; Not Hispanic/Latino, 2 mg vs placebo",−11.4 (3.84)
same,"SBP, LS mean change (SE)","patients with rHTN; Other (not Hispanic/Latino Female), 0.5 mg",−11.1 (2.11)
same,"SBP, LS mean difference (SE)","patients with rHTN; Other (not Hispanic/Latino Female), 0.5 mg vs placebo",−4.0 (2.99)
same,"SBP, LS mean change (SE)","patients with rHTN; Other (not Hispanic/Latino Female), 1 mg",−18.7 (2.13)
same,"SBP, LS mean difference (SE)","patients with rHTN; Other (not Hispanic/Latino Female), 1 mg vs placebo",−11.6 (3.00)
same,"SBP, LS mean change (SE)","patients with rHTN; Other (not Hispanic/Latino Female), 2 mg",−20.9 (2.45)
same,"SBP, LS mean difference (SE)","patients with rHTN; Other (not Hispanic/Latino Female), 2 mg vs placebo",−13.8 (3.24)
same,systolic and diastolic blood pressure,"patients with rHTN; patients with resistant hypertension, FIGS. 10A and 10B",dose-dependent decreases
same,SBP reduction by subgroup,"patients with rHTN; subgroup analyses, baseline to Day 85","greater reduction in SBP if they were male, white, not Hispanic or Latino, higher eGFR, and baseline SBP value of ≥145 mmHg"
